For 11 compounds, Activity, inhibition and IC50 results are on record in ChEMBL document CHEMBL3414499, “Characterization of two distinct structural classes of selective aldehyde dehydrogenase 1A1 inhibitors” (J Med Chem, 2015).

Test [1] addresses T1, Retinaldehyde dehydrogenase 3 (Homo sapiens) (UniProt P47895).
T1 sequence (whole entry): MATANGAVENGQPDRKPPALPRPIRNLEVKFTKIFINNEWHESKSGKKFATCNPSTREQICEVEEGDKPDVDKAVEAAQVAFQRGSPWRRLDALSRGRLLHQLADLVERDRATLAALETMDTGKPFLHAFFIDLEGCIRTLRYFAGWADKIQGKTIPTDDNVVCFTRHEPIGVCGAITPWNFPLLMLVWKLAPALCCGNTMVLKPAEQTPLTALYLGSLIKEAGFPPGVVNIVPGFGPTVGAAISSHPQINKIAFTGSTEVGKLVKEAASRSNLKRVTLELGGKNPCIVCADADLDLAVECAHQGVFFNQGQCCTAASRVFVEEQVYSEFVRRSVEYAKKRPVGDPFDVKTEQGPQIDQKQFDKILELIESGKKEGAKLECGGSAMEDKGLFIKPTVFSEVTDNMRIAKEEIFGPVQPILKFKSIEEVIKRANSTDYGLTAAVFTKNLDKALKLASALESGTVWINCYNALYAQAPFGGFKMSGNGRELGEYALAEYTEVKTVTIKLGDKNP
The test is described as follows: Activation of recombinant human ALDH1A3 using propionaldehyde as substrate at 20 uM preincubated for 2 mins with NAD+ followed by substrate addition by UV-Vis spectrophotometric analysis.

In test [2] the target is T2, Retinal dehydrogenase 2 (Homo sapiens) (UniProt O94788).
T2 sequence (whole entry): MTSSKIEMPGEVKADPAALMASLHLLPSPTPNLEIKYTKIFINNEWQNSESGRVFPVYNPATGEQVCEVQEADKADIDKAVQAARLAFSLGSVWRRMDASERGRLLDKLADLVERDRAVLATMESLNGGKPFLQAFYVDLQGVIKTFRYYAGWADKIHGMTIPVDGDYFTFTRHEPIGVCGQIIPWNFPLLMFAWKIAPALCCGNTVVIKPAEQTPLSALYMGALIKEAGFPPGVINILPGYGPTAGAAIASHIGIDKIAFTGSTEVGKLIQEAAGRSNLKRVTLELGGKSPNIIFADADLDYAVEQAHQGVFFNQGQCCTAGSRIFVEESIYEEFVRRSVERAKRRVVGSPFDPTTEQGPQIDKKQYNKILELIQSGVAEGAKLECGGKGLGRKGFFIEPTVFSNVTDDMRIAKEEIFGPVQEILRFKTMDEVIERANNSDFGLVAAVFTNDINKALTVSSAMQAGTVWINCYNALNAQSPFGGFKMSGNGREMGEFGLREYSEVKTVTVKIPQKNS
In words: Inhibition of recombinant human ALDH1A2 using propionaldehyde as substrate at 100 uM preincubated for 2 mins with NAD+ followed by substrate addition by UV-Vis spectrophotometric analysis.

The target in test [3] is T3, Aldehyde dehydrogenase 1A1 (Homo sapiens, UniProt P00352).
T3 sequence (P00352 whole entry): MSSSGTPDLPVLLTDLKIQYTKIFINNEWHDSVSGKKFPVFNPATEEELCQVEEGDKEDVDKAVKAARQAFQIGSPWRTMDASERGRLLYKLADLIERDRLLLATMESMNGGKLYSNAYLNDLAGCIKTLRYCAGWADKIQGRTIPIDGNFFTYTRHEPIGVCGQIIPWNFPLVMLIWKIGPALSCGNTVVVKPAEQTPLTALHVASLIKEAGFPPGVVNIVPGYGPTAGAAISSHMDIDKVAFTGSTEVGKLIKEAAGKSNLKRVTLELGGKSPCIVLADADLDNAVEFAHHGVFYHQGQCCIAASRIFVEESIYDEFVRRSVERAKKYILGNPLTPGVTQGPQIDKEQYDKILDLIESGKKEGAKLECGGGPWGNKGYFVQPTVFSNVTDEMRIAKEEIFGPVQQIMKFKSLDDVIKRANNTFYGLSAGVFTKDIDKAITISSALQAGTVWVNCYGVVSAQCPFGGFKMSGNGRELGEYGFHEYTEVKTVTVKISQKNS
The test is described as follows: Inhibition of recombinant human ALDH1A1 using propionaldehyde as substrate preincubated for 2 mins with NAD+ followed by substrate addition by UV-Vis spectrophotometric analysis.

The target in test [4] is T1, Retinaldehyde dehydrogenase 3 (Homo sapiens). In words: Activation of recombinant human ALDH1A3 using propionaldehyde as substrate at 100 uM preincubated for 2 mins with NAD+ followed by substrate addition by UV-Vis spectrophotometric analysis.
Test [5] concerns the target T4, Aldehyde dehydrogenase, mitochondrial (Homo sapiens) (UniProt P05091).
T4 sequence (whole entry): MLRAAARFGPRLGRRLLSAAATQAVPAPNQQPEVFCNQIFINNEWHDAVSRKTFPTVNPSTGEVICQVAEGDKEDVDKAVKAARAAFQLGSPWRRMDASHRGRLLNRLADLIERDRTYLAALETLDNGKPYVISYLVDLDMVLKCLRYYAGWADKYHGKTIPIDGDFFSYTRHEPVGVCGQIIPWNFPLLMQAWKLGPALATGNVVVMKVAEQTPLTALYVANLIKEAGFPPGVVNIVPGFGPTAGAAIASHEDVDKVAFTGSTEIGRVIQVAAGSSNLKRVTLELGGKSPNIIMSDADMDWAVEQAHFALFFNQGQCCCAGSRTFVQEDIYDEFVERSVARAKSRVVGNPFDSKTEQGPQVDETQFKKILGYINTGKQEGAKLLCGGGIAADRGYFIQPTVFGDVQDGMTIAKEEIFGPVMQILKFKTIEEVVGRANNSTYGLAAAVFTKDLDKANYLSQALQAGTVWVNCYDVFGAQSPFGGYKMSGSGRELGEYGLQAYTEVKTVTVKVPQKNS
The test is described as follows: Inhibition of recombinant human ALDH2 using propionaldehyde as substrate at 100 uM preincubated for 2 mins with NAD+ followed by substrate addition by UV-Vis spectrophotometric analysis.

The target in test [6] is T5, Aldehyde dehydrogenase, dimeric NADP-preferring (Homo sapiens) (UniProt P30838).
T5 sequence (whole entry): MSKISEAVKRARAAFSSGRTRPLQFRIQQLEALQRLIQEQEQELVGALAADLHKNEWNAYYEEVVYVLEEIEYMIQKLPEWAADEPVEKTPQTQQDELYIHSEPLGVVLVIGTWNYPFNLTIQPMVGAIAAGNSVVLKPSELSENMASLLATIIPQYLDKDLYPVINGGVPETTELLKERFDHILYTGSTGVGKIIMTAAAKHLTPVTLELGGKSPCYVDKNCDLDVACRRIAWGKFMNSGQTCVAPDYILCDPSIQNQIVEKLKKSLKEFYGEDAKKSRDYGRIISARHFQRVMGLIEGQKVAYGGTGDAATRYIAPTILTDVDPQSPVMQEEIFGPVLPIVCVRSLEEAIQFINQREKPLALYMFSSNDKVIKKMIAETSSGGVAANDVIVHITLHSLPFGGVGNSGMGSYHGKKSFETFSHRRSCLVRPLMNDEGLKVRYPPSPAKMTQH
In words: Activation of recombinant human ALDH3A1 using benzaldehyde as substrate at 100 uM preincubated for 2 mins with NAD+ followed by substrate addition by UV-Vis spectrophotometric analysis.

Test [7] concerns the target T5, Aldehyde dehydrogenase, dimeric NADP-preferring (Homo sapiens). The test is described as follows: Inhibition of recombinant human ALDH3A1 using benzaldehyde as substrate at 100 uM preincubated for 2 mins with NAD+ followed by substrate addition by UV-Vis spectrophotometric analysis.

Active and inactive are the calls of the source. No cut-off for these calls is given here.

The term IC50 denotes the concentration needed to halve the response being measured. Regarding `Cn1c(=O)c2c(nc(SCC(N)=O)n2Cc2ccccc2F)n(C)c1=O`, the Activity in test [1] was below 10%. Moreover, the inhibition entry in test [2] and in test [5] was “inactive” each time. Besides, the 50% inhibitory concentration (IC50) in test [3] came to 14 µM. Further, in test [4], the result was Active.
Turning to `CCCCn1c(CN2CCN(c3cccc(Cl)c3)CC2)nc2c1c(=O)n(C)c(=O)n2C`, in test [1], the Activity was below 10%. Further, the IC50 in test [3] was above 20 µM. In addition, the outcome in test [6] was Active.
On to `Cn1c(=O)c2c(nc(CN3CCC(C(N)=O)CC3)n2CCCc2ccccc2)n(C)c1=O`, for which, in test [1], the Activity was below 10%. Also, the inhibition result in test [2] and in test [7] was “inactive” in each case.
Take `Cn1c(=O)c2c(nc(N3CCN(Cc4ccccc4)CC3)n2Cc2cccc(Cl)c2)n(C)c1=O`: the Activity in test [1] is below 10%. Also, the IC50 in test [3] was above 20 µM. In addition, the result in test [4] and in test [6] was Active. The inhibition result in test [5] was “inactive”.
With `CCN1CCN(Cc2nc3c(c(=O)n(C)c(=O)n3C)n2CC(=O)c2ccccc2)CC1`, in test [1], the Activity was below 10%. The inhibition result in test [2], in test [5] and in test [7] was “inactive” in each case.
Turning to `CCCCn1c(CN2CCN(c3ccc(OC)cc3)CC2)nc2c1c(=O)n(C)c(=O)n2C`, the Activity in test [1] was below 10%. Moreover, the inhibition entry in test [2], in test [5] and in test [7] was “inactive” each time. Also, in test [3], the IC50 is above 20 µM.
As to `CC(C)CCn1c(CN2CCOCC2)nc2c1c(=O)n(C)c(=O)n2C`, the Activity in test [1] was below 10%. Moreover, the inhibition result in test [2] and in test [7] was “inactive” each time.
For `CC(C)CCn1c(CN(C)Cc2ccccc2)nc2c1c(=O)n(C)c(=O)n2C`, the Activity in test [1] was below 10%. In test [3], the IC50 amounted to 3.4 µM. The outcome in test [4] was Active. For the same compound, the inhibition entry in test [7] is “inactive”.
With `CCCCn1c(Oc2ccc(C(=O)OC)cc2)nc2c1c(=O)n(C)c(=O)n2C`, the Activity in test [1] was below 10%. Further, in test [3], the half-inhibitory concentration (IC50) was found to be 5.2 µM. In test [4], the outcome was Active. Moreover, the inhibition result in test [5] and in test [7] was “inactive” throughout.
As for `Cn1c(=O)c2c(nc(N3CCOCC3)n2Cc2ccccc2F)n(C)c1=O`, in test [1], the Activity is below 10%. Also, the IC50 in test [3] is above 20 µM. Moreover, the result in test [4] was Active. The inhibition entry in test [5] and in test [7] was “inactive” in each case.
Take `CC(C)CCn1c(CN2CCN(C(=O)c3ccco3)CC2)nc2c1c(=O)n(C)c(=O)n2C`: in test [1], the Activity was below 10%. Also, the outcome in test [4] and in test [6] was Active. Further, the inhibition result in test [5] was “inactive”.
